# Test results published in patent US6677466B1, “Method for stabilizing hydrogen peroxide” (DSM Fine Chemicals Austria NFG GmbH & Co KG, priority 1999, dated 2004).
# Assay: O2 evolution from RuO2.xH2O-catalysed decomposition of H2O2 with stabilizer
# Assay type: physicochemical
# Description: A 50% strength aqueous solution of H2O2 (304 mg; 4.46 mmol) was added to 454 mg (4.46 mmol) of methyl pyruvate and to 535 mg (4.46 mmol) of glyoxylic methyl ester methyl hemiacetal, respectively. In the case of methyl pyruvate, a marked evolution of heat was discovered during the addition. After one hour, the H2O2/α-keto ester mixture was mixed with 1 ml of solvent and added to a suspension of 2.5 mg of RuO2.xH2O catalyst (Aldrich) in 4 ml of solvent. The suspension was introduced into a 50 ml flask which was maintained at room temperature in a water bath.
# As a comparison, a suspension of 2.5 mg of RuO2.xH2O catalyst (Aldrich) in 4 ml of solvent was combined with a 50% strength aqueous solution of H2O2 (304 mg; 4.46 mmol) and 1 ml of solvent without stabilizer.
# The amount of oxygen which […] the decomposition of the hydrogen peroxide was determined as a function of time using a Brooks meter, which permitted measurement of the gas flow and of the total amount of evolved gas.
# The amount of oxygen is defined here as % of the maximum amount to be calculated on the basis of stoichiometry.
smiles,measurement,setting,value
"COC(=O)C(O)OC (stereo not drawn) [GMHA, glyoxylic methyl ester methyl hemiacetal]",O2 evolution V(O2) (Vmax(O2)*100%),"solv. acetic acid, t 1 min",0%
same,O2 evolution V(O2) (Vmax(O2)*100%),"solv. acetic acid, t 2 min",1%
same,O2 evolution V(O2) (Vmax(O2)*100%),"solv. acetic acid, t 3 min",2%
same,O2 evolution V(O2) (Vmax(O2)*100%),"solv. acetic acid, t 4 min",2%
same,O2 evolution V(O2) (Vmax(O2)*100%),"solv. acetic acid, t 5 min",2%
same,O2 evolution V(O2) (Vmax(O2)*100%),"solv. acetic acid, t 10 min",2%
same,O2 evolution V(O2) (Vmax(O2)*100%),"solv. acetic acid, t 15 min",2%
same,O2 evolution V(O2) (Vmax(O2)*100%),"solv. acetic acid, t 20 min",2%
same,O2 evolution V(O2) (Vmax(O2)*100%),"solv. acetic acid, t 25 min",2%
same,O2 evolution V(O2) (Vmax(O2)*100%),"solv. acetic acid, t 30 min",2%
same,O2 evolution V(O2) (Vmax(O2)*100%),"solv. acetic acid, t 35 min",2%
same,O2 evolution V(O2) (Vmax(O2)*100%),"solv. acetic acid, t 40 min",2%
same,O2 evolution V(O2) (Vmax(O2)*100%),"solv. acetone, t 1 min",0%
same,O2 evolution V(O2) (Vmax(O2)*100%),"solv. acetone, t 2 min",0%
same,O2 evolution V(O2) (Vmax(O2)*100%),"solv. acetone, t 3 min",0%
same,O2 evolution V(O2) (Vmax(O2)*100%),"solv. acetone, t 4 min",0%
same,O2 evolution V(O2) (Vmax(O2)*100%),"solv. acetone, t 5 min",0%
same,O2 evolution V(O2) (Vmax(O2)*100%),"solv. acetone, t 10 min",0%
same,O2 evolution V(O2) (Vmax(O2)*100%),"solv. acetone, t 15 min",0%
same,O2 evolution V(O2) (Vmax(O2)*100%),"solv. acetone, t 20 min",0%
same,O2 evolution V(O2) (Vmax(O2)*100%),"solv. acetone, t 25 min",0%
same,O2 evolution V(O2) (Vmax(O2)*100%),"solv. acetone, t 30 min",0%
same,O2 evolution V(O2) (Vmax(O2)*100%),"solv. acetone, t 35 min",0%
same,O2 evolution V(O2) (Vmax(O2)*100%),"solv. acetone, t 40 min",0%
same,O2 evolution V(O2) (Vmax(O2)*100%),"solv. acetonitrile, t 1 min",3%
same,O2 evolution V(O2) (Vmax(O2)*100%),"solv. acetonitrile, t 2 min",3%
same,O2 evolution V(O2) (Vmax(O2)*100%),"solv. acetonitrile, t 3 min",3%
same,O2 evolution V(O2) (Vmax(O2)*100%),"solv. acetonitrile, t 4 min",3%
same,O2 evolution V(O2) (Vmax(O2)*100%),"solv. acetonitrile, t 5 min",3%
same,O2 evolution V(O2) (Vmax(O2)*100%),"solv. acetonitrile, t 10 min",3%
same,O2 evolution V(O2) (Vmax(O2)*100%),"solv. acetonitrile, t 15 min",3%
same,O2 evolution V(O2) (Vmax(O2)*100%),"solv. acetonitrile, t 20 min",3%
same,O2 evolution V(O2) (Vmax(O2)*100%),"solv. acetonitrile, t 25 min",3%
same,O2 evolution V(O2) (Vmax(O2)*100%),"solv. acetonitrile, t 30 min",3%
same,O2 evolution V(O2) (Vmax(O2)*100%),"solv. acetonitrile, t 35 min",3%
same,O2 evolution V(O2) (Vmax(O2)*100%),"solv. acetonitrile, t 40 min",3%
same,O2 evolution V(O2) (Vmax(O2)*100%),"solv. ethyl acetate, t 1 min",3%
same,O2 evolution V(O2) (Vmax(O2)*100%),"solv. ethyl acetate, t 2 min",5%
same,O2 evolution V(O2) (Vmax(O2)*100%),"solv. ethyl acetate, t 3 min",6%
same,O2 evolution V(O2) (Vmax(O2)*100%),"solv. ethyl acetate, t 4 min",7%
same,O2 evolution V(O2) (Vmax(O2)*100%),"solv. ethyl acetate, t 5 min",8%
same,O2 evolution V(O2) (Vmax(O2)*100%),"solv. ethyl acetate, t 10 min",9%
same,O2 evolution V(O2) (Vmax(O2)*100%),"solv. ethyl acetate, t 15 min",9%
same,O2 evolution V(O2) (Vmax(O2)*100%),"solv. ethyl acetate, t 20 min",9%
same,O2 evolution V(O2) (Vmax(O2)*100%),"solv. ethyl acetate, t 25 min",9%
same,O2 evolution V(O2) (Vmax(O2)*100%),"solv. ethyl acetate, t 30 min",9%
same,O2 evolution V(O2) (Vmax(O2)*100%),"solv. ethyl acetate, t 35 min",9%
same,O2 evolution V(O2) (Vmax(O2)*100%),"solv. ethyl acetate, t 40 min",9%
same,O2 evolution V(O2) (Vmax(O2)*100%),"solv. methanol, t 1 min",0%
same,O2 evolution V(O2) (Vmax(O2)*100%),"solv. methanol, t 2 min",0%
same,O2 evolution V(O2) (Vmax(O2)*100%),"solv. methanol, t 3 min",0%
same,O2 evolution V(O2) (Vmax(O2)*100%),"solv. methanol, t 4 min",0%
same,O2 evolution V(O2) (Vmax(O2)*100%),"solv. methanol, t 5 min",0%
same,O2 evolution V(O2) (Vmax(O2)*100%),"solv. methanol, t 10 min",0%
same,O2 evolution V(O2) (Vmax(O2)*100%),"solv. methanol, t 15 min",0%
same,O2 evolution V(O2) (Vmax(O2)*100%),"solv. methanol, t 20 min",0%
same,O2 evolution V(O2) (Vmax(O2)*100%),"solv. methanol, t 25 min",0%
same,O2 evolution V(O2) (Vmax(O2)*100%),"solv. methanol, t 30 min",0%
same,O2 evolution V(O2) (Vmax(O2)*100%),"solv. methanol, t 35 min",0%
same,O2 evolution V(O2) (Vmax(O2)*100%),"solv. methanol, t 40 min",0%
same,O2 evolution V(O2) (Vmax(O2)*100%),"solv. t-butanol, t 1 min",0%
same,O2 evolution V(O2) (Vmax(O2)*100%),"solv. t-butanol, t 2 min",0%
same,O2 evolution V(O2) (Vmax(O2)*100%),"solv. t-butanol, t 3 min",0%
same,O2 evolution V(O2) (Vmax(O2)*100%),"solv. t-butanol, t 4 min",0%
same,O2 evolution V(O2) (Vmax(O2)*100%),"solv. t-butanol, t 5 min",0%
same,O2 evolution V(O2) (Vmax(O2)*100%),"solv. t-butanol, t 10 min",0%
same,O2 evolution V(O2) (Vmax(O2)*100%),"solv. t-butanol, t 15 min",0%
same,O2 evolution V(O2) (Vmax(O2)*100%),"solv. t-butanol, t 20 min",0%
same,O2 evolution V(O2) (Vmax(O2)*100%),"solv. t-butanol, t 25 min",0%
same,O2 evolution V(O2) (Vmax(O2)*100%),"solv. t-butanol, t 30 min",0%
same,O2 evolution V(O2) (Vmax(O2)*100%),"solv. t-butanol, t 35 min",0%
same,O2 evolution V(O2) (Vmax(O2)*100%),"solv. t-butanol, t 40 min",0%
same,O2 evolution V(O2) (Vmax(O2)*100%),"solv. water, t 1 min",3%
same,O2 evolution V(O2) (Vmax(O2)*100%),"solv. water, t 2 min",4%
same,O2 evolution V(O2) (Vmax(O2)*100%),"solv. water, t 3 min",5%
same,O2 evolution V(O2) (Vmax(O2)*100%),"solv. water, t 4 min",6%
same,O2 evolution V(O2) (Vmax(O2)*100%),"solv. water, t 5 min",10%
same,O2 evolution V(O2) (Vmax(O2)*100%),"solv. water, t 10 min",13%
same,O2 evolution V(O2) (Vmax(O2)*100%),"solv. water, t 15 min",13%
same,O2 evolution V(O2) (Vmax(O2)*100%),"solv. water, t 20 min",13%
same,O2 evolution V(O2) (Vmax(O2)*100%),"solv. water, t 25 min",13%
same,O2 evolution V(O2) (Vmax(O2)*100%),"solv. water, t 30 min",13%
same,O2 evolution V(O2) (Vmax(O2)*100%),"solv. water, t 35 min",13%
same,O2 evolution V(O2) (Vmax(O2)*100%),"solv. water, t 40 min",13%
